# Legend:
# Human FM3 = target: T1, Human FM3 (Homo sapiens, UniProt Q9HB89); experiment: Receptor binding study: 125I-NMU 8 labeled ligand binding inhibition to the FM3 membrane fraction; conditions: FM3/CHO membrane fraction, 25° C. for 60 min, read-out: FM3 RBA IC50
# T1 construct: expressed in transfected cells; host or cells: CHO (dhfr-) cells; membrane fraction
# T1 sequence (Q9HB89 1-426 R203Q): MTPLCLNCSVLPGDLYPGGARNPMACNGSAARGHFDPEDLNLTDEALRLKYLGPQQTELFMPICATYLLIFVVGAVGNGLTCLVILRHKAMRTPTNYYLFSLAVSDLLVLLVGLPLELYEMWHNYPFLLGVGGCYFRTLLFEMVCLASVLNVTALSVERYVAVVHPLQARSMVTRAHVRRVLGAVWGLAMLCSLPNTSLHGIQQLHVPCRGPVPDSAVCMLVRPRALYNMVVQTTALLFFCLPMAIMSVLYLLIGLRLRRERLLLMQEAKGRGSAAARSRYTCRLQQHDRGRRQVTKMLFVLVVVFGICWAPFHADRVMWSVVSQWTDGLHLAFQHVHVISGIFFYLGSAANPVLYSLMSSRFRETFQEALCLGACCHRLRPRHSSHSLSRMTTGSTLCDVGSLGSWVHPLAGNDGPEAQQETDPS
# Description: Human FM3 represented CHO cells (dhfr-) and human TRI represented CHO cells (dhfr-) were cultured under 5% carbon dioxide conditions at 37° C. using a 10% dialyzed FBS-containing MEMα (Invitrogen) culture. The adhered cells were peeled with 10 ml of 0.1 mM EDTA containing DPB-S (Invitrogen) and cells were recovered by centrifugal separation at 4° C. at 1000 rpm for 10 min. 15 ml of homogenizer buffer (10 mM NaHCO3 (pH 7.4), 5 mM EDTA, Protein Inhibitors=0.5 mM PMSF, 10 μg/ml Pepstatin A, 20 μg/ml Leupeptin, 4 μg/ml E-64) were added to the cell pellets obtained. […]
# Next, the reactivity between the radiation labeled ligand ^125I-NMU 8 and each receptor represented cell membrane fraction was analyzed by scatchard analysis using a reactive buffer (50 mM HEPES (pH 6.8), 1 mM EDTA, 0.1% BSA, Protein Inhibitors). […]
# Namely, dilution strings of NMU derivatives and PEG conjugates were provided and diluted membrane fraction solutions (200 μl) were added. […] According to the aforementioned operations, the amount of binding of the labeled ligand remaining in the filter was measured and the IC50 values were calculated using graph pad PRISM (FIG. 4A (FM3 receptor binding), FIG. 4B (TGR1 receptor binding), FIG. 4C (FM3 receptor binding), FIG. 4D (TGR1 receptor binding) Table 9).
# male C57BL/6J mice = experiment: Test Example 2: antifeedant activity of NMU-23 and NMU-8 in mice; assay type: in vivo; conditions: peripheral administration
# Description: 7 weeks old male C57BL/6J mice (mean bodyweight: 25 g) delivered from the Japan Charles River Company were raised for 5 to 10 days after delivery under a feeding environment regulated for temperature and humidity with lighting time (25° C., 12 hours of lighted period and 12 hours of dark period, light was lit at 8:00). Four animals were placed in one cage. After handling the mice for 5 to 8 days, the animals were housed singly in each cage where a floor mesh was spread and acclimated by intraperitoneal injection for 3 days prior to the administration of a peptide. The animals acclimated were fasted for 16 hours from 18:00 prior to the administration of the peptide. However, the animals had free access to drinking water. […] After the injection of the peptide solution, MF feed which had been weighed (Oriental Yeast Industry) was given freely to the mice. Further, the residual amount of the feed was measured after 3, 6 and 24 hours. The food intakes at 3, 6 and 24 hours were calculated by subtracting the residual amount of the feed after 3, 6 and 24 hours from the amount of the feed that was originally given.
# [In FIG. 2, * and ** tested by T-tests indicated to be lower at the levels of significance of 0.05 and 0.01 (P<0.05 and P<0.01]
compound,measurement,setting,value
"CC(C)C[C@H](NC(=O)[C@H](Cc1ccccc1)NC(=O)[C@@H](N)Cc1ccc(O)cc1)C(=O)N[C@@H](Cc1ccccc1)C(=O)N[C@@H](CCCNC(=N)N)C(=O)N1CCC[C@H]1C(=O)N[C@@H](CCCNC(=N)N)C(=O)N[C@@H](CC(N)=O)C(N)=O [NMU-8, Try-Phe-Leu-Phe-Arg-Pro-Arg-Asn-NH2]",IC50,Human FM3,0.19 nM
same,antifeedant activity via peripheral administration,male C57BL/6J mice,did not express an antifeedant activity
